We go through 2 compounds from article PMC6394301, “Evaluation of the anticancer potential of a sulphonamide carbonic anhydrase IX inhibitor on cervical cancer cells” (Journal of Enzyme Inhibition and Medicinal Chemistry, 2019).

The subject of data set [1] is HeLa cells. Briefly: WST-1 cell viability assay, HeLa. The conditions noted are these: for IC50: WST-1. It is filed as cell-based, human. The procedure: (§1) Since it is an unstable amino acid, the medium was supplemented with L-glutamine immediately prior.
(§2) WST-1 Cell Proliferation test, a product of the Roche Company is a colourimetric assay based on the cleavage of a tetrazolium salt by mitochondrial dehydrogenases to generate formazan in living cells. This assay is simple because only 10 μL of WST-1 reactant is added to 100 μL media on a 96-well plate. The cells were counted with a haemocytometer immediately before the subsequent procedures. The HeLa and PNT1A cells were used for seeding, with 5 × 10^3 cells per well, and then incubated overnight in a humidified atmosphere (37 °C with 5% CO2).
(§3) The next day, WST-1 is added to cells treated with S-1 as a cytotoxic reagent and the incubation is continued for an additional 1−2 h in a humidified atmosphere. One of the advantages of the WST-1 test is that colour change (yellow) can be seen with the naked eye.
(§4) After incubation, the plate was shaken well for 1 min. The absorbance is then measured at 450 nm versus a 650 nm reference by using a plate reader (M5, Spectra MAX) and SoftMax Pro software from Molecular Devices to compare experimental samples to controls.
(§5) IC50 is a measure used to estimate the potency of a material that inhibits a specific biological or biochemical function.
We determined the cell viability of CC cell line HeLa grown in 96-well plates for 24, 48, 72 h and treated with increasing concentrations (0, 2.5, 5, 10, 25, 50, 100, 200 μM) of S-1. Cell viability was evaluated with colourimetric WST-1 assay as described previously tested on the splitting of the tetrazolium salt by mitochondria dehydrogenases in viable cell. […] The number of viable cells was then quantified using trypan blue exclusion.
In general terms: Tetrazolium dyes change colour on reduction, which living cells bring about.

In data set [2] the test system is HeLa cells. Briefly: Intracellular total oxidant status (TOS). Type of data set: cell-based, human. As for the experimental part: The amount of cellular TOS was measured using an automated colourimetric reading process advanced by Erel[26]. In this method, the oxidation reaction is increased by the presence of excess glycerol in the reaction medium. Ferric ion forms a coloured complex with chromogen orange in an acidic environment. The spectrophotometrically measurable colour intensity is concerned to the whole level of oxidant molecules existent in the specimen. The assay is calibrated with H2O2, and the results are expressed in terms of micromolar H2O2 per mg protein (μmol H2O2 Equiv./mg protein).

For data set [3], the system named is HeLa cells. Briefly: Oxidative stress index (OSI). Type of data set: cell-based, human. As for the experimental part: Percentage of TOS to TAS amount is taken into account in order to determine the oxidative stress index (OSI)[27]. Oxidative stress index was determined according to the equation outlined below:
OSI = (TOS (μ mol H2O2 equiv/g))/(TAS (μ mol Trolox equiv/g)) × 10

Data set [4] relates to HeLa cells. Put plainly: Intracellular total antioxidant status (TAS). Type of data set: cell-based, human. The settings on record: positive control group. The procedure:
The cellular TAS amount was determined using a new colourimetric assay method, which was improved by Erel[25]. This process is withstanding on the bleaching of the ostensible colour of the 2,2′-azino-bis [3-ethylbenzothiazoline-6-sulfonic acid] (ABTS) radical cation via the action of antioxidants. Upon the addition of a sample, the oxidative reactions initiated by the hydroxyl radicals present in the reaction mixture are inhibited by the antioxidant components of the lysate, preventing colour change and thus providing an effective measure of the TAS value of the lysate. The precision of this test has high accuracy (less than 3% error rate). Analysis results were expressed as mmol Trolox equiv/mg protein.

Another data set concerns PNT1-A cells. Put plainly: WST-1 cell viability assay, PNT1-A. Type of data set: cell-based, human. The settings on record: PNT1-A 24 h. The procedure: as §1, §2, §3, §4, §5
The nature of data set [5]: Stability of the imine bond in the assay medium. It is filed as physicochemical.
The next data set deals with CA-IX. The settings on record: read-out: Ki value of CA-IX; cited from earlier work.

On to `N.N.[Cl][Pt][Cl]` [Cisplatin, cisplatin, reference compound], for which the IC50 (as a rule, the midpoint of a concentration-inhibition curve) with HeLa cells [1] (HeLa 24 h) turned out to be 28.9 µM; in the data set with HeLa cells [1] (HeLa 48 h), 7.6 µM; with HeLa cells [1] (HeLa 72 h), 6.1 µM; in the data set with PNT1-A cells it was 13.4 µM. Further, the TOS level in the data set with HeLa cells [2] (positive control group) is on record as 11.49 μmol H2O2 Equiv./mg protein. This compound returned an OSI value with HeLa cells [3] (positive control, from TOS and TAS) of 1.72. For the same compound, the TAS value with HeLa cells [4] is 0.67 mmol Trolox equiv/mg protein.

On to `NS(=O)(=O)c1ccc(N=Cc2cc(Cl)cc(Cl)c2O)cc1` [S-1, 4-[(3,5-Dichloro-2-hydroxybenzylidene)amino]benzenesulfonamide], for which the IC50 in the data set with HeLa cells [1] (Homo sapiens, HeLa 24 h) amounted to 25.2 µM; in the data set with HeLa cells [1] (Homo sapiens, HeLa 48 h) it was 42.9 µM; in the data set with HeLa cells [1] (Homo sapiens, HeLa 72 h), 84.1 µM; with PNT1-A cells (Homo sapiens, PNT1A) it was 198 µM. Moreover, the viability (as a rule, the share of living cells, or the viability signal relative to a control) at 200 µM in the data set on HeLa cells [1] (Homo sapiens, HeLa, 200 μM, 48 h incubated, read-out: greatest viability loss) stood at 5.5%. In addition, the “TOS level compared with Cisplatin” value in the data set on HeLa cells [2] (doses 50, 100 µM) is reported as “nearly same effect as Cisplatin”. In addition, the “OSI value compared with Cisplatin” value in the data set on HeLa cells [3] (100 μM concentration) is “too close to the level of Cisplatin”. For the same compound, the “stability in the assay medium” value in data set [5] was “stable”. The Ki (commonly the equilibrium dissociation constant of an inhibitor or competing ligand from its target) on CA-IX was 0.0356 µM.
